How the values were obtained:
HSC1 [1] = test: relative IC50 (inflection point of fitted dose-response curve, CellTiter-Glo viability, 72 h; top asymptote may be below 50% inhibition); higher = less potent
Outline: (§1)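 MPNST cell lines and primary human Schwann cells were seeded at 750–1000 cells per well into 384-well plates preprinted with each compound at five concentrations in 10-fold steps, then incubated 72 h at 37 °C, 5% CO2. CellTiter-Glo ATP luminescence gave viability, scaled between vehicle and positive-control wells, with duplicates averaged where present. Curves were fitted with a four-parameter logistic model. Percent inhibition refers to the top concentration, while drug sensitivity score and relative IC50, censored at the top concentration, come from these fits.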

STS26T [2] = test: as above
Outline: as §1

HSC2 [3] = test: as above
Outline: as §1

S1507-2 [4] = test: as above
Outline: as §1

HS-Sch-2 = test: as above
Outline: as §1

YST-1 = test: as above
Outline: as §1

HS-PSS [5] = test: as above
Outline: as §1

ST8814 [6] = test: as above
Outline: as §1

S462 = test: as above
Outline: as §1

HSC1 [7] = test: relative IC50 (inflection point of fitted dose-response curve, CellTox-Green cytotoxicity, 72 h; top asymptote may be below 50%); higher = less potent
Outline: (§2)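 For 72 h at 37 °C, MPNST cell lines and primary human Schwann cells were exposed in 384-well plates to five 10-fold compound dilutions. CellTox-Green, added before seeding at a final 1:1000 dilution, gave fluorescence from DNA released by disrupted cells. Signals were scaled to vehicle and positive-control wells, cultures failing plate quality control were left out, and four-parameter logistic fits were applied. Relative IC50 and drug sensitivity score were derived from the fits, with IC50 censored at the top concentration.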

STS26T [8] = test: as above
Outline: as §2

HSC2 [9] = test: as above
Outline: as §2

S1507-2 [10] = test: as above
Outline: as §2

HS-PSS [11] = test: as above
Outline: as §2

ST8814 [12] = test: as above
Outline: as §2

| Structure (SMILES) | relative IC50 (HSC1 [1]) [nM] | relative IC50 (STS26T [2]) [nM] | relative IC50 (HSC2 [3]) [nM] | relative IC50 (S1507-2 [4]) [nM] | relative IC50 (HS-Sch-2) [nM] | relative IC50 (YST-1) [nM] | relative IC50 (HS-PSS [5]) [nM] | relative IC50 (ST8814 [6]) [nM] | relative IC50 (S462) [nM] | relative IC50 (HSC1 [7]) [nM] | relative IC50 (STS26T [8]) [nM] | relative IC50 (HSC2 [9]) [nM] | relative IC50 (S1507-2 [10]) [nM] | relative IC50 (HS-PSS [11]) [nM] | relative IC50 (ST8814 [12]) [nM] |
| --- | --- | --- | --- | --- | --- | --- | --- | --- | --- | --- | --- | --- | --- | --- | --- |
| Nc1ncnc2c1nc(N)n2[C@@H]1O[C@H](CO)[C@@H](O)[C@H]1O [8-amino-adenosine] | 1360 | 1100 | 2250 | 885 | 1230 | 647 | 1620 | 1110 | 1080 | 6650 | 1060 | 7010 | 2820 | 4130 | 1730 |
| O=NN(CCCl)C(=O)NC1CCCCC1 [Lomustine] | > 10000 | > 10000 | > 10000 | > 10000 | > 10000 | > 10000 | > 10000 | > 10000 | > 10000 | > 10000 | > 10000 | > 10000 | > 10000 | > 10000 | > 10000 |
| Oc1ncnc2[nH]ncc12 [Allopurinol] | > 10000 | > 10000 | > 10000 | > 10000 | > 10000 | > 10000 | > 10000 | > 10000 | > 10000 | > 10000 | > 10000 | > 10000 | > 10000 | > 10000 | > 10000 |
| COc1ccc(S(=O)(=O)Nc2cccnc2Nc2ccc(O)cc2)cc1 [ABT-751] | 468 | 367 | 476 | 325 | 437 | 814 | 3010 | 353 | 351 | 831 | 246 | 304 | 355 | > 10000 | 536 |
| CC1(COc2ccc3c(c2)ncn3-c2ccc3cccc(N4CCC(N)CC4)c3n2)COC1 [Crenolanib] | 2670 | 2710 | 2430 | 2280 | 1250 | 3310 | 3640 | 1750 | 3270 | 2930 | 3240 | 3310 | 1950 | 3150 | 1980 |
| CC(C)c1cc(-c2n[nH]c(=O)n2-c2ccc3c(ccn3C)c2)c(O)cc1O [Ganetespib] | 14.9 | 24.4 | 17.2 | 42.4 | 23.2 | 36.8 | 42.7 | 18.1 | 25 | 17.8 | 33 | 18.5 | 46.4 | 37.5 | 11.5 |
| Cc1[nH]c2ccccc2c1CCNCc1ccc(/C=C/C(=O)NO)cc1 [Panobinostat] | 20.8 | 35.4 | 37.2 | 11.2 | 25.4 | 9.07 | 54.8 | 15 | 14.2 | 125 | 64.9 | 122 | 30.9 | 89.1 | 36.6 |
| C/C(=C\c1csc(C)n1)[C@@H]1C[C@@H]2O[C@]2(C)CCC[C@H](C)[C@H](O)[C@@H](C)C(=O)C(C)(C)[C@@H](O)CC(=O)N1 [Ixabepilone] | 115 | 350 | 248 | 332 | 313 | 361 | 392 | 363 | 335 | 283 | 316 | 354 | 370 | > 1000 | 341 |
| Nc1ccn([C@@H]2O[C@H](CO)[C@@H](O)C2(F)F)c(=O)n1 [Gemcitabine] | 2.2 | 1.59 | 2 | 0.876 | 2.09 | 8.34 | 19.9 | 4.13 | 0.481 | 8.57 | 1.22 | 5.47 | 2.65 | 50.4 | 3.86 |
| CC(C)C[C@H](NC(=O)[C@H](CCc1ccccc1)NC(=O)CN1CCOCC1)C(=O)N[C@@H](Cc1ccccc1)C(=O)N[C@@H](CC(C)C)C(=O)[C@@]1(C)CO1 [Carfilzomib] | 11.5 | 8.28 | 9.67 | 17.2 | 2.75 | 4.71 | 11.7 | 8.99 | 4.5 | 24.6 | 8.79 | 23 | 25.7 | 25.1 | 12 |
| NS(=O)(=O)OC[C@@H]1C[C@@H](n2ccc3c(N[C@H]4CCc5ccccc54)ncnc32)C[C@@H]1O [Pevonedistat] | 513 | 520 | 380 | 208 | 46.8 | 128 | 89.6 | 187 | 95.2 | 737 | 137 | 1220 | 291 | 222 | 201 |
| CCCCCCCCc1ccc(CCC(N)(CO)CO)cc1 [Fingolimod] | 2150 | 2620 | 2340 | 2030 | 2480 | 2940 | 1890 | 2770 | 3070 | 1950 | 3340 | 2220 | 1600 | 3160 | 3430 |
| CCCc1cc(C)[nH]c(=O)c1CNC(=O)c1cc(-c2ccnc(N3CCN(C)CC3)c2)cc2c1cnn2C(C)C [GSK343] | 1520 | 3820 | 1810 | 2690 | 3810 | 4350 | 2970 | 3200 | 3250 | > 10000 | 2660 | > 10000 | 2310 | 3090 | 3100 |

From the supplement of paper PMC5579334
